Molecules are shown by their SMILES.

One assay deals with Candida albicans KB-8. The assay can be described thus: Number of viable cells in the kidney of Candida-infected mice. Particulars: per os, total dose 20 mg/kg; for Medicated group, number of cells in kidney (cell/g): given immediately and 5 hours after infection, kidneys taken 24 hours after infection; for Medicated/ Non-medicated (logarithmic value): kidney cell count 24 hours after infection, non-medicated group 1.45x10^5 cell/g. The assay is classed as in vivo, DDY strain male mice. As for the experimental part:
Candida albicans KB-8 was cultured on a Sabouraud's agar plate admixed with blood in a concentration of 5 % (v/v) - at 30°C for 4 days, suspended in physiologically saline solution and diluted to approximately 10,000,000 cells/ml. DDY strain male mice were […] via the tail vein with 0.2 ml of this suspension.
The animals were orally medicated with the test compound in the form of 0,5 % (w/v) methylcellulose supension at a total dose of 20 mg per kg of the body weight immediately and 5 hours after the infection.
After 24 hours from the infection, the animals were sacrificed, and the kidneys were taken out. After the kidneys were homogenized in 4 fold sterilized physiologically saline solution, a certain amount of the suspension was scattered on a Sabouraud's agar plate and cultured at 37°C for 48 hours. Then, the number of colonies was counted, the number of cells per one gram of the kidney was calculated, and the difference between the calculated numbers in the medicated group and in the non- medicated group was expresed by a logarithmic value.

The test system of assay [1] is Candida albicans, strain KB-8 (clinical isolate). In words: In vitro inhibition of pseudomycelium formation. The following applies: effective dose to inhibit formation of pseudomycelium, light microscopy at 72 hours after inoculation, Eagle's MEM, 37°C, 5 % CO2, read-out: Minimum effective dose. It is filed as cell-based. As for the experimental part: Candida albicans, strain KB-8 (clinical isolate), was maintained on Sabouraud's agar slants at room temperature. Yeast cells were grown at 37°C on Sabouraud's agar and a loopful from a 24 hours' slant was inoculated in 4.5 ml of Sabouraud's broth and cultured at 37°C for 24 hours. A 0.5 ml aliquot of this culture was inoculated in 100 ml of a casein hydrolysate yeast-extract glucose medium (CYG medium). Cells were grown at 37°C aerobically in a reciprocating shaker for 48 hours. From this culture, a 0.2 ml aliquot was again inoculated in 100 ml CYG medium and grown for another 24 hours at 37°C while shaking.
The pseudomycelium growth-promoting medium consisted of Eagle's minimal essential medium supplemented with non-essential amino acids and sodium bicarbonate (2 g/liter). Yeast cells were seeded at densities of 1.0 x 10^5/ml in sterile culture tubes (010 x 100 mm) containing 3 ml of medium. Cells were grown in a humidified atmosphere of 5 % C02 in air at 37°C.
The effects of the test compound were evaluated . under the following conditions: the cultures were exposed to the test compound in doses ranging from […] to 10^-4 M; the solvent for the test compound was added as an aqueous solution. Pseudomycelium development was observed by light microscopy at 72 hours after inoculation.

`CCCCSCC(O)(Cn1ccnc1)c1ccc(Cl)cc1Cl` (racemic) [A]: in the assay on Candida albicans KB-8, the “Medicated group, number of cells in kidney (cell/g)” value (“Medicated group, number of cells” below) is listed as 1.86x10^3 cell/g and the “Medicated/ Non-medicated (logarithmic value)” value was -1.89. In addition, the minimal effective concentration in assay [1] turned out to be 0.1 µM.

As for `CCCCSC[C@](O)(Cn1ccnc1)c1ccc(Cl)cc1Cl` [I (n=3), (R)-3-(n-butylthio)-2-(2,4-dichlorophenyl)-1-(imidazol-1-yl)-2-propanol], in the assay with Candida albicans KB-8, the “Medicated group, number of cells” value is 1.41x10^3 cell/g and the “Medicated/ Non-medicated (logarithmic value)” value is recorded as -2.01. Also, in assay [1], the minimal effective concentration is 0.001 µM.

On to `CCCCSC[C@@](O)(Cn1ccnc1)c1ccc(Cl)cc1Cl` [B, (S)-3-(n-butylthio)-2-(2,4-dichlorophenyl)-1-(imidazol-1-yl)-2-propanol], for which, in the assay on Candida albicans KB-8, the “Medicated group, number of cells” value was 1.82x10^4 cell/g and the “Medicated/ Non-medicated (logarithmic value)” value is -0.90. The minimal effective concentration in assay [1] worked out at 1 µM.
